Measured values as given in patent US20260027073A1, “USE OF SMALL-MOLECULE COMPOUND HAVING NAPHTHYLAMINE STRUCTURE” (HANGZHOU PHECDAMED CO., LTD., priority 2023, published 2026).

Legend:
[1] = test system: LPS-induced acute lung injury mice; assay: Survival in LPS-induced acute lung injury; assay type: in vivo, C57 mice; conditions: 20 mg/kg intraperitoneal once a day; up to 9 days; FIG. 28
Protocol: The model was constructed as follows, male mice C57 aged 6-8 weeks and weighing 18-22 g were anesthetized and fixed, and then 20 mg/kg LPS (E.coil) was dissolved in 50 μl of PBS and dripped under direct laryngoscopic vision to form a model group. The experiment was divided into three groups, each having six mice, LPS group (model control group, airway drip of 50 μl LPS), LPS+20 mg/kg group (airway drip of 50 μl LPS, and given 20 mg/kg of TJ01-013 treatment), LPS+Sivelestat group (positive control group, airway drip of 50 μl LPS and given 5 mg/kg of Sivelestat treatment). The mode of administration was intraperitoneal injection, the volume of administration was 5 ml/kg, the frequency of administration was once a day, and the biological deaths and changes in body weights of the mice were observed and recorded every day, and the mice were regarded as physiologically dead if their body weights decreased by 20% or more compared with that before the administration of LPS. Survival curves were plotted based on deaths observed up to 9 days after administration.

[2] = test system: HGPS-MSC; assay: Senescence of HGPS patient derived mesenchymal stem cells; assay type: cell-based, human; conditions: 10 μM
Protocol: Mesenchymal stem cells HGPS-MSC differentiated from pluripotent stem cells (iPSC) of patients with Hutchinson-Gilford Progeria Syndrome (HGPS) were taken for culture, and the experiment was divided into three groups, namely, young cells cultured for 7 generations, labeled as Con-Y; senescent cells cultured for 12 generations, labeled as Con-O; and the administration group to which 10 μM of TJ01-013 was added during the process of culture, similarly cultured up to the 12th generation, labeled as Con-O+TJ01-013; the drug administration group to which 10 μM positive drug Ionafarnib was added during the process of culture, similarly cultured up to the 12th generation, and labeled as Con-O+ Ionafarnib; after the end of the treatment, all the cells were placed under the microscope to observe the morphology of the cells, and the proportion of SA-β-gal+ cells was counted. The levels of DNA damage marker γ-H2AX and heterochromatin modification H3K9me3 after TJ01-013 treatment and Ionafarnib treatment were detected by immunofluorescence technique (the specific procedure was described previously).

O=C(O)C[S+]([O-])c1cc(NS(=O)(=O)c2ccc(Br)cc2)c2ccccc2c1O (stereo not shown) [I-1]
survival rate [1]: significantly elevated | percentage of SA-β-gal+ cells ([2]; 12th generation, vs Con-O, FIG. 54): significantly decreased | level of DNA damage marker γ-H2AX ([2]; FIG. 55): significantly reduced | expression level of heterochromatin-modified H3K9me3 ([2]; FIG. 56): restored its expression level to some extent
